Laboratory results published in the supplement of paper PMC11061612.

Columns and labels:
Test in all cases: Bliss excess, mean over the matrix (fraction); higher = more synergy
[1] = tested on: HCC-827 (Lung Adenocarcinoma)
Method in brief: (§1)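 Cell lines grown in DMEM/F12 or RPMI with 10% FBS were plated in 1536-well plates and held 24 hours at 37°C, 5% CO2 before 72 hours of exposure to two-drug dose matrices, with DMSO typically at 0.2%. CellTiter-Glo 2.0 luminescence gave viability, which was converted to inhibition. Vehicle wells were set to 0 and blank wells to 1. Combination Emax is the second-highest inhibition in the matrix, and Bliss excess is the observed combination effect minus the expected EA + EB − EA·EB, where EA and EB are the single-agent effects.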

[2] = tested on: SNG-M (Endometrial Carcinoma)
Method in brief: as §1

[3] = tested on: SK-UT-1 (Other Solid Carcinomas)
Method in brief: as §1

[4] = tested on: SNU-61 (Colorectal Carcinoma)
Method in brief: as §1

[5] = tested on: P31-FUJ (Acute Myeloid Leukemia)
Method in brief: as §1

[6] = tested on: EKVX (Non-Small Cell Lung Carcinoma)
Method in brief: as §1

[7] = tested on: HOP-92 (Non-Small Cell Lung Carcinoma)
Method in brief: as §1

[8] = tested on: TYK-nu (Ovarian Carcinoma)
Method in brief: as §1

[9] = tested on: JHH-6 (Hepatocellular Carcinoma)
Method in brief: as §1

MSTO-211H (Mesothelioma) = tested on: MSTO-211H (Mesothelioma)
Method in brief: as §1

[10] = tested on: 647-V (Bladder Carcinoma)
Method in brief: as §1

[11] = tested on: EFM-192A (Breast Carcinoma)
Method in brief: as §1

CS1 (Chondrosarcoma) = tested on: CS1 (Chondrosarcoma)
Method in brief: as §1

[12] = tested on: MEG-01 (Chronic Myelogenous Leukemia)
Method in brief: as §1

[13] = tested on: HCT-116 (Colorectal Carcinoma)
Method in brief: as §1

[14] = tested on: SLVL (B-Cell Non-Hodgkin's Lymphoma)
Method in brief: as §1

A172 (Glioblastoma) = tested on: A172 (Glioblastoma)
Method in brief: as §1

H4 (Low Grade Glioma) = tested on: H4 (Low Grade Glioma)
Method in brief: as §1

[15] = tested on: WSU-DLCL2 (B-Cell Non-Hodgkin's Lymphoma)
Method in brief: as §1

[16] = tested on: BICR78 (Oral Cavity Carcinoma)
Method in brief: as §1

Q: How did the Bliss excess [1] turn out when `Cc1c2c(nn1C)CSCc1cc(n(C)n1)CSc1cc(c3ccccc3c1)OCCCc1c(C(=O)O)n(C)c3c-2c(Cl)ccc13` [AZD5991] + C[C@@H](Nc1cc(F)cc(F)c1)c1cc(C(=O)N(C)C)cc2c(=O)cc(N3CCOCC3)oc12 [AZD8186] (first compound max 1 µM, 7x7, partner max 3 µM) was run?
A: 0.0064

Q: What about the Bliss excess [2] of the same molecule?
A: -0.0242

Q: What about the Bliss excess [3] of the same molecule?
A: -0.0104

Q: What about the Bliss excess [4] of the same molecule?
A: -0.0277

Q: What about the Bliss excess [5] of the same molecule?
A: -0.041

Q: What about the Bliss excess [6] of the same molecule?
A: 0.0062

Q: What about the Bliss excess [7] of the same molecule?
A: 0.0222

Q: What about the Bliss excess [8] of the same molecule?
A: -0.0118

Q: What about the Bliss excess [9] of the same molecule?
A: -0.0281

Q: What about the Bliss excess (MSTO-211H (Mesothelioma)) of the same molecule?
A: -0.0019

Q: What about the Bliss excess [10] of the same molecule?
A: 0.0458

Q: And the Bliss excess [11]?
A: -0.0207

Q: What about the Bliss excess (CS1 (Chondrosarcoma)) of the same molecule?
A: 0.0031

Q: What about the Bliss excess [12] of the same molecule?
A: 0.0019

Q: And the Bliss excess [13]?
A: -0.0421

Q: What about the Bliss excess [14] of the same molecule?
A: -0.0262

Q: What about the Bliss excess (A172 (Glioblastoma)) of the same molecule?
A: -0.004

Q: And the Bliss excess (H4 (Low Grade Glioma))?
A: -0.0054

Q: What about the Bliss excess [15] of the same molecule?
A: -0.058

Q: What about the Bliss excess [16] of the same molecule?
A: -0.034

Q: `Cc1c2c(nn1C)CSCc1cc(n(C)n1)CSc1cc(c3ccccc3c1)OCCCc1c(C(=O)O)n(C)c3c-2c(Cl)ccc13` [AZD5991] + Cc1cc2ncnn2cc1Nc1ncc2c(n1)n(C1CCOCC1)c(=O)n2C [AZD7648] (first compound max 1 µM, 7x7, partner max 10 µM) was tested. Which Bliss excess [1] did it give?
A: -0.0476

Q: What about the Bliss excess [2] of the same molecule?
A: 0.0071

Q: What about the Bliss excess [3] of the same molecule?
A: -0.0252

Q: What about the Bliss excess [4] of the same molecule?
A: -0.0446

Q: What about the Bliss excess [5] of the same molecule?
A: 0.0055

Q: And the Bliss excess [6]?
A: -0.069

Q: And the Bliss excess [7]?
A: -0.0332

Q: And the Bliss excess [8]?
A: -0.0539

Q: And the Bliss excess [9]?
A: -0.0622

Q: And the Bliss excess (MSTO-211H (Mesothelioma))?
A: -0.025

Q: And the Bliss excess [10]?
A: 0.0281

Q: What about the Bliss excess [11] of the same molecule?
A: -0.0394

Q: What about the Bliss excess (CS1 (Chondrosarcoma)) of the same molecule?
A: -0.0282

Q: What about the Bliss excess [12] of the same molecule?
A: -0.0157

Q: What about the Bliss excess [13] of the same molecule?
A: 0.013

Q: What about the Bliss excess [14] of the same molecule?
A: 0.0016

Q: And the Bliss excess (A172 (Glioblastoma))?
A: -0.0426

Q: And the Bliss excess (H4 (Low Grade Glioma))?
A: 0.0222

Q: And the Bliss excess [15]?
A: -0.0422

Q: What about the Bliss excess [16] of the same molecule?
A: -0.0172

Q: For `Cc1c2c(nn1C)CSCc1cc(n(C)n1)CSc1cc(c3ccccc3c1)OCCCc1c(C(=O)O)n(C)c3c-2c(Cl)ccc13` [AZD5991] + Cn1cnc2c(F)c(Nc3ccc(Br)cc3Cl)c(C(=O)NOCCO)cc21 [Selumetinib] (first compound max 1 µM, 7x7, partner max 3 µM), which Bliss excess [1] is on record?
A: -0.0091

Q: And the Bliss excess [2]?
A: -0.0258

Q: And the Bliss excess [3]?
A: -0.0063

Q: And the Bliss excess [4]?
A: -0.0079

Q: And the Bliss excess [5]?
A: 0.0399

Q: What about the Bliss excess [6] of the same molecule?
A: -0.0474

Q: What about the Bliss excess [7] of the same molecule?
A: -0.0332

Q: What about the Bliss excess [8] of the same molecule?
A: -0.0052

Q: What about the Bliss excess [9] of the same molecule?
A: -0.0116

Q: What about the Bliss excess (MSTO-211H (Mesothelioma)) of the same molecule?
A: -0.006

Q: And the Bliss excess [10]?
A: 0.0749

Q: And the Bliss excess [11]?
A: -0.0116

Q: And the Bliss excess (CS1 (Chondrosarcoma))?
A: -0.0136

Q: What about the Bliss excess [12] of the same molecule?
A: 0.139

Q: And the Bliss excess [13]?
A: -0.0049

Q: What about the Bliss excess [14] of the same molecule?
A: 0.0516

Q: What about the Bliss excess (A172 (Glioblastoma)) of the same molecule?
A: 0.0179

Q: What about the Bliss excess (H4 (Low Grade Glioma)) of the same molecule?
A: -0.0265

Q: And the Bliss excess [15]?
A: -0.0123

Q: And the Bliss excess [16]?
A: -0.0106

Q: How did the Bliss excess [1] turn out when `C[C@@H]1COCCN1c1cc(C2([S@](C)(=N)=O)CC2)nc(-c2ccnc3[nH]ccc23)n1` [AZD6738] + O=C(c1cc(Cc2n[nH]c(=O)c3ccccc23)ccc1F)N1CCN(C(=O)C2CC2)CC1 [Olaparib] (first compound max 10 µM, 7x7, partner max 10 µM) was run?
A: -0.0086

Q: And the Bliss excess [2]?
A: 0.0294

Q: What about the Bliss excess [3] of the same molecule?
A: 0.0408

Q: And the Bliss excess [4]?
A: -0.0019

Q: What about the Bliss excess [5] of the same molecule?
A: -0.0848

Q: And the Bliss excess [6]?
A: 0.0206

Q: And the Bliss excess [7]?
A: 0.0158

Q: What about the Bliss excess [8] of the same molecule?
A: -0.0674

Q: And the Bliss excess [9]?
A: -0.0039

Q: What about the Bliss excess (MSTO-211H (Mesothelioma)) of the same molecule?
A: -0.0082

Q: And the Bliss excess [10]?
A: 0.0753

Q: And the Bliss excess [11]?
A: 0.0387

Q: And the Bliss excess (CS1 (Chondrosarcoma))?
A: 0.0318

Q: And the Bliss excess [12]?
A: -0.0458

Q: What about the Bliss excess [13] of the same molecule?
A: 0.0928

Q: What about the Bliss excess [14] of the same molecule?
A: -0.0355

Q: And the Bliss excess (A172 (Glioblastoma))?
A: -0.0398

Q: And the Bliss excess (H4 (Low Grade Glioma))?
A: 0.0238

Q: What about the Bliss excess [15] of the same molecule?
A: -0.0119

Q: What about the Bliss excess [16] of the same molecule?
A: -0.0431

Q: `Cc1cc2ncnn2cc1Nc1ncc2c(n1)n(C1CCOCC1)c(=O)n2C` [AZD7648] + C=CCn1c(=O)c2cnc(Nc3ccc(N4CCN(C)CC4)cc3)nc2n1-c1cccc(C(C)(C)O)n1 [AZD1775] (first compound max 10 µM, partner max 1 µM) was tested. Which Bliss excess [1] did it give?
A: -0.0044

Q: And the Bliss excess [2]?
A: 0.0527

Q: And the Bliss excess [3]?
A: 0.0203

Q: What about the Bliss excess [4] of the same molecule?
A: -0.049

Q: And the Bliss excess [5]?
A: -0.0027

Q: And the Bliss excess [6]?
A: 0.0061

Q: What about the Bliss excess [7] of the same molecule?
A: -0.0022

Q: And the Bliss excess [8]?
A: -0.0394

Q: And the Bliss excess [9]?
A: 0.011

Q: And the Bliss excess (MSTO-211H (Mesothelioma))?
A: 0.067

Q: What about the Bliss excess [10] of the same molecule?
A: 0.0132

Q: And the Bliss excess [11]?
A: 0.0338

Q: What about the Bliss excess (CS1 (Chondrosarcoma)) of the same molecule?
A: 0.0046

Q: What about the Bliss excess [12] of the same molecule?
A: -0.0209

Q: And the Bliss excess [13]?
A: 0.008

Q: What about the Bliss excess [14] of the same molecule?
A: -0.035

Q: And the Bliss excess (A172 (Glioblastoma))?
A: 0.0587

Q: What about the Bliss excess (H4 (Low Grade Glioma)) of the same molecule?
A: -0.082

Q: And the Bliss excess [15]?
A: -0.0048

Q: And the Bliss excess [16]?
A: 0.0189

Q: How did the Bliss excess [1] turn out when `Cc1cc2ncnn2cc1Nc1ncc2c(n1)n(C1CCOCC1)c(=O)n2C` [AZD7648] + CCN(CCO)CCCOc1ccc2c(Nc3cc(CC(=O)Nc4cccc(F)c4)[nH]n3)ncnc2c1 [AZD2811] (first compound max 10 µM, 7x7, partner max 1 µM) was run?
A: -0.0026

Q: And the Bliss excess [2]?
A: 0.0507

Q: What about the Bliss excess [3] of the same molecule?
A: 0.0407

Q: And the Bliss excess [4]?
A: -0.0383

Q: What about the Bliss excess [5] of the same molecule?
A: -0.017

Q: What about the Bliss excess [6] of the same molecule?
A: -0.0199

Q: And the Bliss excess [7]?
A: -0.0038

Q: And the Bliss excess [8]?
A: 0.0625

Q: And the Bliss excess [9]?
A: 0.0238

Q: And the Bliss excess (MSTO-211H (Mesothelioma))?
A: 0.0509

Q: And the Bliss excess [10]?
A: 0.0618

Q: What about the Bliss excess [11] of the same molecule?
A: -0.0175

Q: What about the Bliss excess (CS1 (Chondrosarcoma)) of the same molecule?
A: -0.0403

Q: And the Bliss excess [12]?
A: -0.0233

Q: What about the Bliss excess [13] of the same molecule?
A: 0.0304

Q: And the Bliss excess [14]?
A: 0.0756

Q: What about the Bliss excess (A172 (Glioblastoma)) of the same molecule?
A: 0.0537

Q: And the Bliss excess (H4 (Low Grade Glioma))?
A: 0.006

Q: And the Bliss excess [15]?
A: 0.127

Q: What about the Bliss excess [16] of the same molecule?
A: -0.0135

Q: How did the Bliss excess [1] turn out when `Cc1cc2ncnn2cc1Nc1ncc2c(n1)n(C1CCOCC1)c(=O)n2C` [AZD7648] + CN(C)CCCOc1ccc(-c2ccc3ncc4c(c3c2)n(C2CCOCC2)c(=O)n4C)cn1 [AZD0156] (first compound max 10 µM, 7x7, partner max 1 µM) was run?
A: 0.0386

Q: And the Bliss excess [2]?
A: 0.0073

Q: What about the Bliss excess [3] of the same molecule?
A: 0.0143

Q: And the Bliss excess [4]?
A: -0.0151

Q: What about the Bliss excess [5] of the same molecule?
A: 0.0381

Q: And the Bliss excess [6]?
A: 0.0001

Q: And the Bliss excess [7]?
A: -0.0136

Q: What about the Bliss excess [8] of the same molecule?
A: -0.0465

Q: What about the Bliss excess [9] of the same molecule?
A: -0.0033

Q: And the Bliss excess (MSTO-211H (Mesothelioma))?
A: 0.0388

Q: What about the Bliss excess [10] of the same molecule?
A: 0.0401

Q: What about the Bliss excess [11] of the same molecule?
A: -0.0119

Q: What about the Bliss excess (CS1 (Chondrosarcoma)) of the same molecule?
A: -0.0028

Q: And the Bliss excess [12]?
A: -0.0108

Q: What about the Bliss excess [13] of the same molecule?
A: 0.0277

Q: What about the Bliss excess [14] of the same molecule?
A: -0.0164

Q: And the Bliss excess (A172 (Glioblastoma))?
A: -0.034

Q: And the Bliss excess (H4 (Low Grade Glioma))?
A: -0.0253

Q: What about the Bliss excess [15] of the same molecule?
A: 0.0127

Q: And the Bliss excess [16]?
A: 0.0054
